Test results taken from patent publication US20200397738A1, “METHODS FOR TREATING CANCER AND PROTECTING RENEWABLE TISSUES” (President and Fellows of Harvard College, priority 2018, published 2020).

Assays:
[1] = tested on: thymus; assay: acute toxicity experiment, caspase-3 in thymus; conditions: 200 mg/kg, 24 hours
Protocol: (§2) To assess the impact of Compound 1 and preserved p53 on apoptosis, human breast cancer cells MCF-7 were treated with increasing doses (0-100 μg/ml) of Compound 1. […] The expression level of the pro-apoptotic gene p21 was used as surrogate marker to assess the activity of p53. […] C57BL/6 mice were treated with, PBS, Nutlin 3A (200 mg/kg) or Compound 1 (200 mg/kg). The mice were sacrificed 24 hours later, and caspase-3 expression was assessed in thymus, a tissue very sensitive to p53-induced apoptosis.

[2] = tested on: thymus, spleen and duodenum; assay: TUNEL analysis of IR- and doxorubicin-induced apoptosis in renewable tissues; assay type: in vivo, wild-type mice; conditions: doxorubicin 20 mg/kg alone (Compound 1 0 mg/kg)
[3] = tested on: EZH2; assay: immunostaining of EZH2 and H3K27me3 in renewable tissues; assay type: in vivo, mice; conditions: thymus, spleen and duodenum, 4 mg/kg, 19 hours
Protocol: (§1) Half-life of EZH2 was measured in splenocytes isolated from wildtype mouse that had been pretreated with 2 μg/ml of Compound 1 for 24 hours followed by 100 μg/ml cycloheximide (CHX). […] To further confirm the effect of Compound 1 on EZH2 and H3K27me3, thymocytes isolated from wildtype mice were treated with 0, 0.5, 1, 3 or 5 μg/ml of Compound 1 for 12 hours. […] Furthermore, to validate the effect of Compound 1 on EZH2 and H3K27me3 in renewable tissues, wildtype mice were treated with 0 or 4 mg/kg of Compound 1 for 19 hours.

[4] = biological target: T1, MDM2/MDMX complex (Mus musculus, UniProt O35618+P23804); assay: immunoprecipitation with anti-Mdmx antibody and immunoblot in splenocytes; assay type: cell-based; conditions: splenocytes from wild-type mice, 2 or 5 μg/ml, 24 hour
T1 construct: endogenous in cells; host or cells: primary splenocytes from wild-type mice
Protocol: A small molecule compound, referred to herein as Compound 1 was used to dissociate and reduce the MDM2/MDMX complex, and preserve p53. […] To further verify this finding, splenocytes from wild-type mice were treated with 2 or 5 μg/ml of Compound 1, or vehicle for 24 hour.

[5] = tested on: HIF1; assay: RT-qPCR of ALDHA in MCF-7 cells (marker of HIF1 activity); assay type: cell-based, human; conditions: MCF-7, 0-100 μg/ml
Source text: The expression level of ALDHA was used as surrogate marker to assess the activity of HIF1.

[6] = tested on: thymus, spleen and duodenum; assay: TUNEL analysis of IR- and doxorubicin-induced apoptosis in renewable tissues; assay type: in vivo, wild-type mice
Protocol: To assess the protective effects of Compound 1 on renewable tissues, wild-type mice were injected with Compound 1 at a dose of 4 mg/kg IP for 19 hours before 4 Gy ionizing radiation (IR) or exposure to doxorubicin (20 mg/kg).

[7] = tested on: thymocytes; assay: IR-induced killing of thymocytes, cell count; assay type: cell-based, mice
Protocol: Thymocytes isolated from wildtype mice were treated with 2 μg/ml of Compound 1 for 24 hours, in absence or presence of 2 μM GSK126, followed by 0 Gy or 5 Gy IR. Cell numbers were counted 48 hours after IR to assess the effect of Compound 1 and EZH2 inhibition on IR-induced killing.

[8] = biological target: MDM2/MDMX-mediated p53 ubiquitination (Homo sapiens, UniProt O15151+Q00987); assay: cell-free assay with purified proteins, p53 ubiquitination; assay type: biochemical
[9] = tested on: EZH2; assay: half-life of EZH2 in splenocytes with cycloheximide; assay type: cell-based, mouse; conditions: 2 μg/ml 24 hours, then 100 μg/ml cycloheximide
Protocol: as §1

[10] = tested on: human breast cancer cells MCF-7; assay: MCF-7 cell proliferation; assay type: cell-based; conditions: MCF-7, 10 μM
Protocol: To assess the impact of Compound 1 on cell proliferation, human breast cancer cells MCF-7 were treated with 10 μM of Compound 1.

[11] = biological target: T2, MDM2/MDMX complex (Homo sapiens, UniProt O15151+Q00987); assay: cell-based mammalian two-hybrid assay
T2 construct: expressed in transfected cells

[12] = tested on: MCF-7 tumor xenografts; assay: immunohistochemical analysis of MCF-7 tumor xenografts; assay type: in vivo; conditions: 10 mg/kg IP daily, relative to vehicle-treated mice
[13] = tested on: p53; assay: RT-qPCR of CDKN1A/p21 in MCF-7 cells (marker of p53 activity); assay type: cell-based, human; conditions: MCF-7, 0-100 μg/ml
Protocol: as §2

[14] = tested on: EZH2; assay: Western blot of EZH2 and H3K27me3 in thymocytes; assay type: cell-based, mice; conditions: thymocytes, 0.5, 1, 3 or 5 μg/ml, 12 hours
Protocol: as §1

[15] = tested on: MCF-7 xenograft tumors; assay: growth of MCF-7 xenograft tumors; assay type: in vivo; conditions: 10 mg/kg IP daily, compared to vehicle-treated mice
Source text: Expression of GLUT1 and PGK1 serves as markers of aggressive biological behavior and identifies a worse prognosis in breast cancer patients.

T1 sequence (P23804 whole entry): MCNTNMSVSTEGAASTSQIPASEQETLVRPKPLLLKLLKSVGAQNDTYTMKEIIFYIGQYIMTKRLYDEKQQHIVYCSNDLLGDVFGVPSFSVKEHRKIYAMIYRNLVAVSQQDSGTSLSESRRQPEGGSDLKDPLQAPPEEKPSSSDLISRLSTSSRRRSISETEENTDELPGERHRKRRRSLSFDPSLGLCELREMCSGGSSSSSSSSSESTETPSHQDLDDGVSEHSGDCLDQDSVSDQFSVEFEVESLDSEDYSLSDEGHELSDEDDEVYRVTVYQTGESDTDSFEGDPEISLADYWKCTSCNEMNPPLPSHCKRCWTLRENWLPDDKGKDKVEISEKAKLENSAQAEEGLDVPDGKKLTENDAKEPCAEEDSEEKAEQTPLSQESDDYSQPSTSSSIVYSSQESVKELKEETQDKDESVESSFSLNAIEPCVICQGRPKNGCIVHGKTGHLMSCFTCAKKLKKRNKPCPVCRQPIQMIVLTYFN
T1 sequence (O35618 whole entry): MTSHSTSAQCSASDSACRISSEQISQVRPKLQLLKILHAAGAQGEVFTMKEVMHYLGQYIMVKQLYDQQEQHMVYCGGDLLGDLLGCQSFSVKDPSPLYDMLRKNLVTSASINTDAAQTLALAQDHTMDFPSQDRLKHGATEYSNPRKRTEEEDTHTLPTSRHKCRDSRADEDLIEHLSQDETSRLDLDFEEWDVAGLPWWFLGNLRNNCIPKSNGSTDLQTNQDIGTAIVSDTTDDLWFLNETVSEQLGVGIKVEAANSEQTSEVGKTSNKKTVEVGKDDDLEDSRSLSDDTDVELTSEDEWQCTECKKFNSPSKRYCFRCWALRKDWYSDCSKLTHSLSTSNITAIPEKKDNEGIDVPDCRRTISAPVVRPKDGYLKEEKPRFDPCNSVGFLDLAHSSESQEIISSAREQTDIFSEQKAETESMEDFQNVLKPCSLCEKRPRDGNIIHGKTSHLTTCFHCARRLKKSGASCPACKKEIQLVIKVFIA
T2 sequence (Q00987 whole entry): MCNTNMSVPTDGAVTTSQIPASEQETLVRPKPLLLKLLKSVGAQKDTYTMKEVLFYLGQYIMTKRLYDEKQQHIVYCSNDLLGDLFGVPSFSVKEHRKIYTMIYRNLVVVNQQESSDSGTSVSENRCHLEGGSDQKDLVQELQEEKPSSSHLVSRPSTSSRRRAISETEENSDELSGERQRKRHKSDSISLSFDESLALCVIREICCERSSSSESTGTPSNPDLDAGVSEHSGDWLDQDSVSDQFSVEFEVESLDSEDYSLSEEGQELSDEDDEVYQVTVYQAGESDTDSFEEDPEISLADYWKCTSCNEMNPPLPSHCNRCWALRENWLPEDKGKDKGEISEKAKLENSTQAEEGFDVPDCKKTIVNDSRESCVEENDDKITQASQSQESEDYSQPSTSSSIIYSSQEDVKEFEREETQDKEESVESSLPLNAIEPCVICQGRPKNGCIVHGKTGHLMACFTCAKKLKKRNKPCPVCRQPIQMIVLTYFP
T2 sequence (O15151 whole entry): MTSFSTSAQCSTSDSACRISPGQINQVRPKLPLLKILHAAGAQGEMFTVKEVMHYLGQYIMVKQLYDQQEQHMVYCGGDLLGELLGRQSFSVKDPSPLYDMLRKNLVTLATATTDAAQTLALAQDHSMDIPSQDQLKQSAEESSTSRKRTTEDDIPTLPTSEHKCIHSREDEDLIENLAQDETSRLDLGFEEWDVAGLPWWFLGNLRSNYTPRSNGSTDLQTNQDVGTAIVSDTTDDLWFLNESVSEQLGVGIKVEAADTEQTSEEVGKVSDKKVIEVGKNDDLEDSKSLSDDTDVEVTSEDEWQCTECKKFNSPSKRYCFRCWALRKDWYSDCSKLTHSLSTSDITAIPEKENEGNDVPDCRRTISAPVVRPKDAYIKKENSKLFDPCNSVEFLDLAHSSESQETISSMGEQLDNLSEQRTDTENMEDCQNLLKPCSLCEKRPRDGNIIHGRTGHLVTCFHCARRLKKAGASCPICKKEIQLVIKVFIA
MDM2/MDMX-mediated p53 ubiquitination, sequence (Q00987 whole entry): as the sequence (Q00987 whole entry) above
MDM2/MDMX-mediated p53 ubiquitination, sequence (O15151 whole entry): as the sequence (O15151 whole entry) above

## COc1ccc(C2=N[C@@H](c3ccc(Cl)cc3)[C@@H](c3ccc(Cl)cc3)N2C(=O)N2CCNC(=O)C2)c(OC(C)C)c1 [Nutlin 3A]
[1]
  caspase-3 activation (apoptosis) in thymus: considerable apoptosis

## COc1cccc2c1C(=O)c1c(O)c3c(c(O)c1C2=O)C[C@@](O)(C(=O)CO)C[C@@H]3O[C@H]1C[C@H](N)[C@H](O)[C@H](C)O1 [Doxorubicin, doxorubicin]
[2]; Duodenum
  TUNEL apoptosis: 15 ± 1.1%
[2]; Spleen
  TUNEL apoptosis: 22 ± 0.2%
[2]; Thymus
  TUNEL apoptosis: 15 ± 0.1%

## COC(=O)C1(Cc2ccc(C)c(C/C=C(/C)Cl)c2)OC(=O)C(O)C1c1ccc(O)cc1 (stereo not drawn) [Compound 1]
[3]
  EZH2 immunostaining: induction
  H3K27me3 immunostaining: induction
[4]
  disassociation of the MDM2/MDMX complex: disassociation
[5]
  mRNA level of ALDHA: significant decrease
[6]; Duodenum, 4 Gy IR, Compound 1 4 mg/kg IP 19 hours before
  TUNEL apoptosis: 1 ± 0.3%
[6]; Duodenum, Control (no IR or doxorubicin), Compound 1 4 mg/kg IP
  TUNEL apoptosis: 0%
[6]; Duodenum, doxorubicin 20 mg/kg, Compound 1 4 mg/kg IP 19 hours before
  TUNEL apoptosis: 3 ± 0.1%
[6]; Spleen, 4 Gy IR, Compound 1 4 mg/kg IP 19 hours before
  TUNEL apoptosis: 7 ± 0.2%
[6]; Spleen, Control (no IR or doxorubicin), Compound 1 4 mg/kg IP
  TUNEL apoptosis: 0%
[6]; Spleen, doxorubicin 20 mg/kg, Compound 1 4 mg/kg IP 19 hours before
  TUNEL apoptosis: 1 ± 0.1%
[6]; Thymus, 4 Gy IR, Compound 1 4 mg/kg IP 19 hours before
  TUNEL apoptosis: 22 ± 4%
[6]; Thymus, Control (no IR or doxorubicin), Compound 1 4 mg/kg IP
  TUNEL apoptosis: 0%
[6]; Thymus, doxorubicin 20 mg/kg, Compound 1 4 mg/kg IP 19 hours before
  TUNEL apoptosis: 1 ± 0.2%
[7]; 2 μg/ml 24 hours, 5 Gy IR, counted 48 hours after IR
  IR-induced cell death: significantly attenuated
[8]
  MDM2/MDMX-mediated p53 ubiquitination and degradation: blocking MDM2/MDMX-mediated p53 ubiquitination and degradation
[9]
  half-life of EZH2: prolonged half-life
[10]
  cell proliferation: considerable reduction in cell proliferation
[11]
  disassociation of the MDM2/MDMX complex: dose-dependent disassociation
[12]
  expression of PUMA in tumors: little to no change
  expression of p21 in tumors: little to no change
  glycolytic marker GLUT1 in tumors: lower level
  glycolytic marker PGK1 in tumors: lower level
  p53 level in tumors: readily detectable levels of p53
  proliferation marker Ki-67 in tumors: lower level
[13]
  mRNA level of p21: little induction
[14]
  level of EZH2: significantly induced levels
  level of H3K27me3: significantly induced levels
[15]
  tumor growth: significant growth delay

## CC[C@H](C)n1cc(C)c2c(C(=O)NCc3c(C)cc(C)[nH]c3=O)cc(-c3ccc(N4CCNCC4)nc3)cc21 [GSK126, reference compound]
[7]; 2 μM GSK126 with 2 μg/ml Compound 1, 5 Gy IR
  protective effect of Compound 1 against IR-induced cell death: reversed
